We go through 5 compounds from patent publication US11491232B2, “Lactuloside compounds and preparation and use thereof” (Fruithy Holdings Limited, priority 2017, dated 2022).

One data set concerns colon flora. Nature of the data set: Stability in the presence of colon flora (content in colon of rat). It is filed as in vitro ADME, SD rat. On the procedure: A phosphate buffer solution with a pH of 7.0 was formulated, and then CO2 was introduced to the solution to adjust the pH to 6.8. Then, the content in colon of a male SD rat (body weight: 180-220 g) was placed in a water bath at 37° C., and added into the phosphate buffer solution with a pH of 6.8 as prepared above under the protection of N2 to a concentration of 20% (w/v). The buffer solution was kept in an oxygen-free environment. Then, the test Compound 17 was added to the buffer solution, and the solution was stirred uniformly.
Supernatant was analyzed with HPLC, where the amount of each ingredient was calculated by normalization.
Note: in the above table, “T14.148 (%)” represents the percentage of peak area of the material with a retention time of 14.148 min “T14.713 (%)” represents the percentage of peak area of the material with a retention time of 14.713 min. “T16.392 (%)” represents the percentage of peak area of the material with a retention time of 16.392 min. “T22.624 (%)” represents the percentage of peak area of the material with a retention time of 22.624 min.
(§1) Other typical example compounds were tested for stability according to the above method, and the test results are shown in Table 8 below.

Data set [1] is described as follows: Test on stability in mediums in vitro (buffer solutions with different pH, simulated intestinal fluid, simulated gastric fluid). In kind it is physicochemical. On the procedure: At 37° C., Compound 17 was incubated in different mediums (buffer solutions with different pH, a simulated intestinal fluid containing pancreatin, and simulated gastric fluid containing pepsin).
as §1

The mark [2] stands for this setting: male, Sprague-Dawley (SD), rat, 1 h, pH 6.8.
Setting [3] is: Simulated intestinal fluid (containing pancreatin) (pH 6.8) (8 h).
Setting [4] is: Content in colon (pH 6.8) (1 h).

As for `C[C@@H]1C[C@H]2[C@@H]3CCC4=CC(=O)C=C[C@]4(C)[C@@]3(F)[C@@H](O)C[C@]2(C)[C@@]1(O)C(=O)COC1(CO)O[C@H](CO)[C@@H](O[C@@H]2O[C@H](CO)[C@H](O)[C@H](O)[C@H]2O)[C@@H]1O` (stereo partly drawn) [Compound 4, (11β,16α)-9-fluoro-11,17-dihydroxyl-16-methyl-21-{[4-O-(β-D-galactopyranosyl)-D-fructofuranosyl]oxy}pregna-1,4-diene-3,20-dione], the figures for the “Percentage of the example compound remaining (Composition, %)” value (with colon flora (setting [2]); in data set [1] (setting [3]); in data set [1] (Water (pH 1.2) (2 h))) were 15.6%, 99.4% and 25.0%, respectively. Moreover, the “Percentage of the released active drug (prednisolone, dexamethasone, budesonide, apremilast or prucalopride) (Composition, %)” value in the data set on colon flora (setting [2]) is 50.3%; in data set [1] (setting [3]), 0%; in data set [1] (Water (pH 1.2) (2 h)), 72.7%.
As for `CCCC1O[C@@H]2C[C@H]3[C@@H]4CCC5=CC(=O)C=C[C@]5(C)[C@H]4[C@@H](O)C[C@]3(C)[C@]2(C(=O)COC2(CO)O[C@H](CO)C(O[C@@H]3OC(CO)[C@H](O)C(O)C3O)C2O)O1` (stereo partly drawn) [Compound 7, (11β,16α)-11-hydroxyl-16,17-(butylidenedioxy)-21-{[4-O-(β-D-galactopyranosyl)-D-fructofuranosyl]oxy}pregna-1,4-diene-3,20-dione], the “Percentage of the example compound remaining (Composition, %)” value is 27.2% in the data set on colon flora (setting [2]), 98.9% in data set [1] (setting [3]) and 20.0% in data set [1] (Water (pH 1.2) (2 h)). Besides, the “Percentage of the released active drug (prednisolone, dexamethasone, budesonide, apremilast or prucalopride) (Composition, %)” value with colon flora (setting [2]) was 45.9%; in data set [1] (setting [3]), 0.1%; in data set [1] (Water (pH 1.2) (2 h)) it was 61.6%.
For `CCOc1cc([C@@H](CS(C)(=O)=O)N2C(=O)c3cccc(N(C(C)=O)C4(CO)O[C@H](CO)C(O[C@@H]5OC(CO)[C@H](O)C(O)C5O)C4O)c3C2=O)ccc1OC` (stereo partly drawn) [Compound 12, N-{2-[(S)-1-(3-ethoxy-4-methoxyphenyl)-2-(methylsulfonyl)ethyl]-1,3-dioxo-2,3-dihydro-1H-isoindol-4-yl}-N′-[4-O-(β-D-galactopyranosyl)-D-fructofuranosyl]acetamide], the figures for the “Percentage of the example compound remaining (Composition, %)” value (in the data set with colon flora (setting [4]); in data set [1] (setting [3]); in data set [1] (Water (pH 1.2) (2 h))) were 30.1%, 100% and 20.0%, respectively. Further, the “Percentage of the released active drug (prednisolone, dexamethasone, budesonide, apremilast or prucalopride) (Composition, %)” value was 0% in data set [1] (setting [3]) and 79.8% in data set [1] (Water (pH 1.2) (2 h)).
For the compound `COCCCN1CCC(N(C(=O)c2cc(Cl)c(N)c3c2OCC3)C2(CO)O[C@H](CO)C(O[C@@H]3OC(CO)[C@H](O)C(O)C3O)C2O)CC1` (stereo partly drawn) [Compound 13, 4-amino-5-chloro-2,3-dihydro-N-[1-(3-methoxypropyl)-4-piperidinyl]-N′-[4-O-(β-D-galactopyranosyl)-D-fructofuranosyl]-7-benzofurancarboxamide], the “Percentage of the example compound remaining (Composition, %)” value in the data set with colon flora (setting [4]) is recorded as 18.7%; in data set [1] (setting [3]) it was 99.4%; in data set [1] (Water (pH 1.2) (2 h)) it was 4.4%. Further, the figures for the “Percentage of the released active drug (prednisolone, dexamethasone, budesonide, apremilast or prucalopride) (Composition, %)” value in data set [1] (setting [3]) and in data set [1] (Water (pH 1.2) (2 h)) were 0% and 95.0%, respectively.
For `COCCCN1CCC(NC(=O)c2cc(Cl)c(NC3(CO)O[C@H](CO)[C@@H](O[C@@H]4O[C@H](CO)[C@H](O)[C@H](O)[C@H]4O)[C@@H]3O)c3c2OCC3)CC1` (stereo partly drawn) [Compound 14, 5-chloro-2,3-dihydro-4-{[4-O-(β-D-galactopyranosyl)-D-fructofuranosyl]amino}-N-[1-(3-methoxypropyl)-4-piperidinyl]-7-benzofurancarboxamide], the “Percentage of the example compound remaining (Composition, %)” value with colon flora (setting [4]) was 2.1%; in data set [1] (setting [3]), 98.3%. The “Percentage of the released active drug (prednisolone, dexamethasone, budesonide, apremilast or prucalopride) (Composition, %)” value in data set [1] (setting [3]) is reported as 1.1%; in data set [1] (Water (pH 1.2) (2 h)), 99.5%.
